Test results taken from patent publication US7855192B2, “Macrolactams by engineered biosynthesis” (Kosan Biosciences, Inc., priority 2007, dated 2010).
pIC50: −log10 of the molar value. Where two headings read alike, the source gives them in different places.

Key:
Hsp70 = assay: Induction of Hsp70 in SKBr3 cells as marker of Hsp90 inhibition; format: cell-based, human; conditions: SKBr3 cells continuously exposed to 1 μM test compound
Description: The activity of macrolactams of this invention as Hsp90 inhibitors was confirmed by monitoring the effect of exposure to them on an Hsp90 client protein and a protein induced upon Hsp90 inhibition. […]. The procedure used was that described in Munster et al., Cancer Research 2002, 62, 3132-3137.
[…]. Heat shock protein-70 (“Hsp70”), another protein that performs a chaperone function, is a protein that is induced upon inhibition of Hsp90 (Brodsky & Chiosis, Curr. Topics Med. Chem. 2006, 6 (11), 1215-1225). Thus, the induction of Hsp70 can be used as a marker for the inhibition of Hsp90. […]. GAPDH is an enzyme involved in glycolysis and is expressed constitutively in all cells and is a marker of choice as a loading control in Western Blotting experiments.)

[1] = system: SKBr3 and MCF7 cancer cells; conditions: with versus without dicoumarol (NQO1 inhibitor)
MX-1 = assay: cells; conditions: Homo sapiens, MX1, read-out: Inhibitory activity against cancer cells IC50
Protocol: (§1) The ability of the macrolactams of this invention to inhibit the growth of cancer cells was evaluated using the procedure of Patel, supra. […] SKOV3 is a human ovarian cancer cell line. […] MV-4-11 is yet another human leukemia cell line (acute myeloid leukemia or AML). […] Where an assay was performed multiple times, the range of values measured is given.

MCF-7 = assay: cells; conditions: Homo sapiens
Protocol: as §1

BT-474 = assay: cells; conditions: Homo sapiens, BT-474, read-out: Inhibitory activity against cancer cells IC50
Protocol: as §1

SKOV3 = assay: cells; conditions: Homo sapiens, SK-OV-3, read-out: Inhibitory activity against cancer cells IC50
Protocol: as §1

K-562 = assay: cells; conditions: Homo sapiens, K562, read-out: Inhibitory activity against cancer cells IC50
Protocol: as §1

NCI-ADR = assay: cells; conditions: Homo sapiens, NCI/ADR-RES, read-out: Inhibitory activity against cancer cells IC50
Protocol: as §1

RPMI-8226 = assay: cells; conditions: Homo sapiens, RPMI-8226, read-out: Inhibitory activity against cancer cells IC50
Protocol: as §1

SKBr3 = assay: cells; conditions: Homo sapiens
Protocol: as §1

MDA-468 = assay: cells; conditions: read-out: Inhibitory Concentration IC50, NQO1 deficient cancer cells
Protocol: as §1
(§2) As noted above, geldanamycin derivatives in the quinone oxidation state are dependent on the enzyme NQO1 to reduce them to their hydroquinone derivatives for enhanced activity as Hsp90 inhibitors. However, some cancer cells are deficient in NQO1 activity and thus unable to effect the quinone-to-hydroquinone conversion.

HCT-116 = assay: cells; conditions: Homo sapiens, HCT-116, read-out: Inhibitory activity against cancer cells IC50
Protocol: as §1

COLO 205 = assay: cells; conditions: Homo sapiens, COLO 205, read-out: Inhibitory activity against cancer cells IC50
Protocol: as §1

HT-29 = assay: cells; conditions: Homo sapiens, HT-29, read-out: Inhibitory activity against cancer cells IC50
Protocol: as §1

MV-4-11 = assay: cells; conditions: Homo sapiens, MV4-11, read-out: Inhibitory activity against cancer cells IC50
Protocol: as §1

NCI-H596 = assay: cells; conditions: Homo sapiens, NCI-H596, read-out: Inhibitory Concentration IC50, NQO1 deficient cancer cells
Protocol: as §1, §2

[2] = MCF7, read-out: Inhibitory activity against cancer cells IC50
[3] = SK-BR-3, read-out: Inhibitory Activity IC50, no dicoumarol added
[4] = SK-BR-3, read-out: Inhibitory activity against cancer cells IC50

In the case of `C=CCNC1=C2C[C@@H](C)C[C@H](OC)[C@H](O)[C@@H](C)/C=C(\C)[C@H](OC(N)=O)[C@@H](OC)/C=C\C=C(/C)C(=O)NC(=CC1=O)C2=O` [Compound 17-AAG, 17-allylamino-17-demethoxygeldanamycin, reference compound], the “Induction of Hsp70, gel picture FIG. 5” value (Hsp70) was “Hsp70 was induced”.

`CO[C@H]1C[C@H](C)Cc2cc(cc(Cl)c2O)NC(=O)/C(C)=C/CC[C@H](OC)[C@@H](OC(N)=O)/C(C)=C/[C@H](C)[C@H]1O` [III-a] was tested, and the “Change of Hsp90 inhibitory activity in the presence of dicoumarol” value [1] was “remained substantially unchanged”, the pIC50 (MX-1) was 7.38 and the pIC50 (MCF-7; [2]) was 7.22 to 7.28. It also gave a pIC50 (BT-474) of 7.24, a pIC50 (SKOV3) of 6.77 to 6.99 and a pIC50 (K-562) of 7.13. The pIC50 (NCI-ADR) was 5.85 to 6.19, the pIC50 (RPMI-8226) was 7.38 and the pIC50 (SKBr3; [3]) was 7.41. The pIC50 (SKBr3; [4]) was 6.84 to 7.44, the “Induction of Hsp70, gel picture FIG. 5” value (Hsp70) was “Hsp70 was induced” and the pIC50 (MDA-468) was 7.05.

`COC1CC/C=C(\C)C(=O)Nc2cc(F)c(O)c(c2)C[C@@H](C)C[C@H](OC)[C@H](O)[C@@H](C)/C=C(\C)[C@@H]1OC(N)=O` (stereo partly drawn) [III-d] was tested, and the “Change of Hsp90 inhibitory activity in the presence of dicoumarol” value [1] was “remained substantially unchanged”, the pIC50 (HCT-116) was 6.54 to 6.55 and the pIC50 (MX-1) was 7.18. The pIC50 (MCF-7; MCF7, read-out: Inhibitory Activity IC50, dicoumarol added) was 6.79, the pIC50 (MCF-7; MCF7, read-out: Inhibitory Activity IC50, no dicoumarol added) was 6.95 and the pIC50 (MCF-7; [2]) was 6.80 to 7.14. It also gave a pIC50 (BT-474) of 7.10, a pIC50 (SKOV3) of 6.63 to 6.64 and a pIC50 (K-562) of 6.54. The pIC50 (COLO 205) was 7.42, the pIC50 (NCI-ADR) was 5.30 to 5.49 and the pIC50 (RPMI-8226) was 7.18. The pIC50 (HT-29) was 6.96, the pIC50 (MV-4-11) was 7.49 to 7.51 and the pIC50 (SKBr3; SK-BR-3, read-out: Inhibitory Activity IC50, dicoumarol added) was 7.16. The pIC50 (SKBr3; [3]) was 7.38, the pIC50 (SKBr3; [4]) was 7.10 to 7.47 and the “Induction of Hsp70, gel picture FIG. 5” value (Hsp70) was “Hsp70 was induced”. The pIC50 (NCI-H596) was 6.51 and the pIC50 (MDA-468) was 7.00.

Work on `CO[C@H]1C[C@H](C)Cc2cccc(c2)NC(=O)/C(C)=C/CC[C@H](OC)[C@@H](OC(N)=O)/C(C)=C/[C@H](C)[C@H]1O` [III-h] yielded a pIC50 (HCT-116) of 6.62, a pIC50 (MCF-7; [2]) of 6.85 to 6.86 and a pIC50 (SKOV3) of 6.50. The pIC50 (COLO 205) was 6.74, the pIC50 (HT-29) was 6.66 and the pIC50 (SKBr3; [4]) was 6.96 to 7.05.

Work on `CO[C@H]1C[C@H](C)Cc2cc(ccc2O)NC(=O)/C(C)=C/CC[C@H](OC)[C@@H](OC(N)=O)/C(C)=C/[C@H](C)[C@H]1O` [III-i] yielded a pIC50 (HCT-116) of 5.96, a pIC50 (MCF-7; [2]) of 6.22 and a pIC50 (SKBr3; [4]) of 6.08.

For `CO[C@H]1/C=C\C=C(/C)C(=O)Nc2ccc(O)c(c2)C[C@@H](C)C[C@H](OC)[C@H](O)[C@@H](C)/C=C(\C)[C@@H]1OC(N)=O` [IV-a], the pIC50 (HCT-116) was 6.75 and the pIC50 (SKBr3; [4]) was 7.05.

In the case of `CO[C@H]1/C=C\C=C(/C)C(=O)Nc2cc(Cl)c(O)c(c2O)C[C@@H](C)C[C@H](OC)[C@H](O)[C@@H](C)/C=C(\C)[C@@H]1OC(N)=O` [IV-b], the pIC50 (HCT-116) was 6.08, the pIC50 (MX-1) was 6.36 and the pIC50 (BT-474) was 6.85. For the same compound, the pIC50 (SKOV3) was 6.44 to 6.47, the pIC50 (K-562) was 5.85 and the pIC50 (NCI-ADR) was 5.00. For the same compound, the pIC50 (RPMI-8226) was 6.62, the pIC50 (SKBr3; [4]) was 6.35 to 6.40 and the pIC50 (NCI-H596) was 6.09. It also gave a pIC50 (MDA-468) of 6.35.
